Test results: PubChem BioAssay (NCI)
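The compound was tested at five concentrations on cells cultured in 96-well plates, with a 48-hour exposure period. Abbreviation: GI50, concentration required for 50% inhibition of growth. TGI is the concentration that stops growth completely.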 Where a SMILES comes first, the peptide text is derived from it. [ ]: non-standard residue; d: D form. pGlu = O=C1CC[CH](C(=O)O)N1; Thz = O=C(O)[CH]1CSCN1

Columns and labels:
Assay in all cases: inhibition of tumour cell growth, NCI panel, 48 h
SK-MEL-28 melanoma = system: SK-MEL-28 melanoma
SR leukemia = system: SR leukemia
HT29 colon = system: HT29 colon
SNB-19 CNS = system: SNB-19 CNS
LOX IMVI melanoma = system: LOX IMVI melanoma
UO-31 renal = system: UO-31 renal
IGROV1 ovarian = system: IGROV1 ovarian
HCT-15 colon = system: HCT-15 colon
MCF7 breast = system: MCF7 breast
T-47D breast = system: T-47D breast
HL-60(TB) leukemia = system: HL-60(TB) leukemia

| Structure (SMILES) | TGI (SK-MEL-28 melanoma) [µM] | TGI (SR leukemia) [µM] | TGI (HT29 colon) [µM] | TGI (SNB-19 CNS) [µM] | TGI (LOX IMVI melanoma) [µM] | TGI (UO-31 renal) [µM] | TGI (IGROV1 ovarian) [µM] | TGI (HCT-15 colon) [µM] | TGI (MCF7 breast) [µM] | TGI (T-47D breast) [µM] | TGI (HL-60(TB) leukemia) [µM] | GI50 (SK-MEL-28 melanoma) [µM] | GI50 (SR leukemia) [µM] | GI50 (HT29 colon) [µM] | GI50 (SNB-19 CNS) [µM] | GI50 (IGROV1 ovarian) [µM] | GI50 (HCT-15 colon) [µM] | GI50 (MCF7 breast) [µM] | GI50 (HL-60(TB) leukemia) [µM] |
| --- | --- | --- | --- | --- | --- | --- | --- | --- | --- | --- | --- | --- | --- | --- | --- | --- | --- | --- | --- |
| CC(C)(C)C1=C(Br)C(F)(C(C)(C)C)OP1(=O)c1ccccc1 (stereo not given) | 34.1 | 31.4 | 35 | 30.6 | 36.4 | 59.4 | 29.7 | 36.9 | 30 | 42.1 | 16.2 |  |  |  |  |  |  |  |  |
| FC1(F)ON2CCc3ccccc3C2[C@H]1c1ccccc1 (stereo not given in full) | > 100 | > 100 | > 100 | > 100 | > 100 | > 100 | > 100 | > 100 | > 100 | > 100 | > 100 | > 100 | > 100 | > 100 | > 100 | > 100 | > 100 | > 100 | > 100 |
| C#C[C@]1(O)CC[C@H]2[C@@H]3CCC4=C/C(=N\OCCN5CCCCC5)CC[C@]4(C)[C@H]3CC[C@@]21C | 27.4 | 5.17 | 22.4 | 19.1 | 16.5 | 16 | 19.1 | 23 | 15.6 | 19.3 | 6.23 |  |  |  |  |  |  |  |  |
| Cc1ccc2nc3ccccc3c(C3C4C(=O)N(c5ccc(F)cc5)C(=O)C4ON3C(C(N)=O)c3ccccc3)c2c1 (stereo not given) | > 100 | > 100 | > 100 | > 100 | > 100 | > 100 | > 100 | > 100 | 80.8 | > 100 | > 100 |  |  |  |  |  |  |  |  |
| Nc1nc(Cl)cc(NCC2(CCO)CCC2)n1 | > 100 | > 100 | > 100 | > 100 | > 100 | > 100 | > 100 | > 100 | > 100 | > 100 | > 100 |  |  |  |  |  |  |  |  |
| COC(=O)c1cc2c(c(C(=O)OC)c1)CCC2 | > 100 | 86.8 | > 100 | > 100 | > 100 | > 100 | > 100 | > 100 | > 100 | > 100 | > 100 |  |  |  |  |  |  |  |  |
| Cn1c(-c2ccco2)ccc1-c1ccc(C=O)o1 | > 100 | > 100 | > 100 | > 100 | > 100 | > 100 | > 100 | > 100 | > 100 | > 100 | 52.2 |  |  |  |  |  |  |  |  |
| COc1ccc(/C=C2\N=C(N3CCCC(CO)C3)NC2=O)cc1 (stereo not given) | > 100 | > 100 | > 100 | > 100 | > 100 | > 100 | > 100 | > 100 | > 100 | > 100 | > 100 |  |  |  |  |  |  |  |  |
| O=C1CCC(C(=O)N2CSCC2C(=O)O)N1 (stereo not given) ([pGlu]-[Thz]-OH; configuration not given here) | > 100 | > 100 | > 100 | > 100 | > 100 | > 100 | > 100 | > 100 | > 100 | > 100 | > 100 |  |  |  |  |  |  |  |  |
| COc1ccc(/C=N\N(C)Cc2cccc3ccsc23)cc1 | > 100 | > 100 | > 100 | > 100 | > 100 | > 100 | > 100 | > 100 | > 100 | > 100 | > 100 |  |  |  |  |  |  |  |  |
| CCOP(=O)(OCC)Oc1c(OC)c2[nH]c(C(=O)OC)cc2c2c(C(=O)O)c[nH]c12 | > 100 | > 100 | > 100 | > 100 | > 100 | > 100 | > 100 | > 100 | > 100 | > 100 | > 100 |  |  |  |  |  |  |  |  |
| ClCc1nc2ccccc2[nH]1 | > 100 | > 100 | > 100 | > 100 | > 100 | > 100 | > 100 | > 100 | > 100 | > 100 | > 100 |  |  |  |  |  |  |  |  |
| Cc1nc(-c2ccccc2)cn2c1nc1ccccc12 | 72.8 | > 100 | > 56.4 | > 76.2 | > 31.6 | 46.5 | 57.1 | > 68.5 | 23.4 | > 24.9 | > 100 |  |  |  |  |  |  |  |  |
| CCOC(=O)c1c(O)cn2c1[nH]c1cccc3cccc2c31 | > 100 | > 100 | > 100 | > 100 | > 100 | > 100 | > 100 | > 100 | > 100 | > 100 | > 100 |  |  |  |  |  |  |  |  |
| O=C(Nc1ccccc1)N(CCN(Cc1ccccc1)C(=O)Nc1ccccc1)CCN(Nc1ccccc1)C(=O)Nc1ccccc1 | > 100 | > 100 | > 100 | > 100 | > 100 | > 100 | > 100 | > 100 | > 100 | > 100 | > 100 |  |  |  |  |  |  |  |  |
| CCn1c(SCC(=O)N/N=C2\SCC(=O)N2c2ccc(C)cc2)nc2ccccc2c1=O | 48.7 | 47.2 | 31.2 | 43.6 | 55.6 | 30.3 | 43.2 | > 100 | 45.9 | 54.9 | > 100 |  |  |  |  |  |  |  |  |

| Structure (SMILES) | TGI (SK-MEL-28 melanoma) [µM] | TGI (SR leukemia) [µM] | TGI (HT29 colon) [µM] | TGI (SNB-19 CNS) [µM] | TGI (LOX IMVI melanoma) [µM] | TGI (UO-31 renal) [µM] | TGI (IGROV1 ovarian) [µM] | TGI (HCT-15 colon) [µM] | TGI (MCF7 breast) [µM] | TGI (T-47D breast) [µM] | TGI (HL-60(TB) leukemia) [µM] | GI50 (SK-MEL-28 melanoma) [µM] | GI50 (SR leukemia) [µM] | GI50 (HT29 colon) [µM] | GI50 (SNB-19 CNS) [µM] | GI50 (IGROV1 ovarian) [µM] | GI50 (HCT-15 colon) [µM] | GI50 (MCF7 breast) [µM] | GI50 (HL-60(TB) leukemia) [µM] |
| --- | --- | --- | --- | --- | --- | --- | --- | --- | --- | --- | --- | --- | --- | --- | --- | --- | --- | --- | --- |
| COC(=O)C1=C(C)NC(=O)N2[C@@H](CCOCc3ccccc3)CC[C@@H]12 | > 50 | > 50 | > 50 | > 50 | > 50 | > 50 | > 50 | > 50 | > 50 | 49.1 | > 50 |  |  |  |  |  |  |  |  |
| O=c1[nH]c(Nc2ccc(Br)c(C(F)(F)F)c2)nc2nc[nH]c12 | > 100 | > 100 | > 100 | > 100 | > 100 | 77.4 | > 100 | > 100 | > 100 | > 100 | > 100 |  |  |  |  |  |  |  |  |
| COc1ccc(/[N+]([O-])=C/c2ccc(OC(=S)S)c(OC)c2)cc1 | > 100 | 63.5 | > 100 | > 100 | > 100 | > 100 | > 100 | > 100 | > 100 | 99.5 | 53.4 |  |  |  |  |  |  |  |  |
| CCOP(=O)(CC(=O)C1CC1)OCC | > 100 | > 100 | > 100 | > 100 | > 100 | > 100 | > 100 | > 100 | > 100 | > 100 | > 100 |  |  |  |  |  |  |  |  |
| NC1=Nc2ccccc2Sc2nncn21 | > 100 | > 100 | > 100 | > 100 | > 100 | > 100 | > 100 | > 100 | > 100 | > 100 | > 100 |  |  |  |  |  |  |  |  |
| CC(C)(C)OC(=O)NCC(CNC(=O)OC(C)(C)C)C(N)=O | > 100 | > 100 | > 100 | > 100 | > 100 | > 100 | > 100 | > 100 | > 100 | > 100 | > 100 |  |  |  |  |  |  |  |  |
| CC(NC(=O)C1CCC(=O)N1)C(=O)N1CCCC1C(N)=O (stereo not drawn) ([pGlu]-Ala-Pro-NH2; configuration not given here) | > 100 | > 100 | > 100 | > 100 | > 100 | > 100 | > 100 | > 100 | > 100 | > 100 | > 100 |  |  |  |  |  |  |  |  |
| C=C1C(C(=O)OC)[C@H]1C(=O)OC (stereo not given in full) | > 100 | > 100 | > 100 | > 100 | > 100 | > 100 | > 100 | > 100 | > 100 | > 100 | > 100 |  |  |  |  |  |  |  |  |
| COc1c2c(c3c(c1OC)c(=O)c1ccccc1n3C)OCO2 | > 100 | > 100 | > 100 | > 100 | > 100 | > 100 | > 100 | > 100 | > 100 | > 100 | > 100 |  |  |  |  |  |  |  |  |
| CC(NC1=NCCO1)c1ccccc1Cl (stereo not given) | > 100 | > 100 | > 100 | > 100 | > 100 | > 100 | > 100 | > 100 | > 100 | > 100 | > 100 |  |  |  |  |  |  |  |  |
| COc1ccc2c(c1)c1c3c(ccc4ncn2c43)N(CCO)CCN=1 | 0.941 | 0.207 | 0.898 | 1.46 | 0.468 | 0.255 | 5.53 | 0.611 | 0.944 | 1.42 | 0.407 |  |  |  |  |  |  |  |  |
| CC(C)(C)c1cc(/C=C(\C#N)C2=NCCO2)cc(C(C)(C)C)c1O | 29 | 8.91 | 11.7 | 15.5 | 18.8 | 9.27 | 21.9 | 13.1 | 12.7 | 9.13 | 5.87 |  |  |  |  |  |  |  |  |
| COc1ccc(S(=O)(=O)Nc2ccc(-c3csc(N4C(=O)/C(=C/c5ccccc5[N+](=O)[O-])N=C4c4ccccc4)n3)cc2)cc1Cl | > 100 | > 100 | > 100 | > 100 | > 100 | 73.8 | > 100 | 81.2 | > 100 | 75.2 | > 100 |  |  |  |  |  |  |  |  |
| O=S(=O)(O)c1ccc(N=Nc2ccccc2)cc1 | > 100 | > 100 | > 100 | > 100 | > 100 | > 100 | > 100 | > 100 | > 100 | > 100 | > 100 |  |  |  |  |  |  |  |  |
| C#CC1(O)CCC2[C@@H]3CCc4cc(Oc5nc(F)nc(-c6c(C)c(C(=O)OCC)n7ccccc67)n5)ccc4C3CC[C@@]21C (stereo not given in full) | > 100 | > 100 | > 100 | > 100 | > 100 | > 100 | > 100 | > 100 | > 100 | > 100 | > 100 |  |  |  |  |  |  |  |  |
| CN(C)Cc1cc(Cl)c(O)c(CN(C)C)c1 | > 100 | > 100 | > 100 | > 100 | > 100 | > 100 | > 100 | > 100 | > 100 | > 100 | > 100 |  |  |  |  |  |  |  |  |
